Results published in publication PMC6367362, “MD001, a Novel Peroxisome Proliferator-activated Receptor α/γ Agonist, Improves Glucose and Lipid Metabolism” (Scientific Reports, 2019).

Legend:
human HA-PPARα = target: T1, human HA-PPARα (Homo sapiens, UniProt Q07869); test: PPRE luciferase activity assay in HEK293 cells transfected with HA-PPARα; assay type: cell-based; parameters: transcriptional activity of PPARα: dose or concentration left out as unconfirmed; conditions: HEK293, PPRE-pk-Luc
T1 construct: expressed in transfected cells; host or cells: HEK293
T1 sequence (Q07869 1-468): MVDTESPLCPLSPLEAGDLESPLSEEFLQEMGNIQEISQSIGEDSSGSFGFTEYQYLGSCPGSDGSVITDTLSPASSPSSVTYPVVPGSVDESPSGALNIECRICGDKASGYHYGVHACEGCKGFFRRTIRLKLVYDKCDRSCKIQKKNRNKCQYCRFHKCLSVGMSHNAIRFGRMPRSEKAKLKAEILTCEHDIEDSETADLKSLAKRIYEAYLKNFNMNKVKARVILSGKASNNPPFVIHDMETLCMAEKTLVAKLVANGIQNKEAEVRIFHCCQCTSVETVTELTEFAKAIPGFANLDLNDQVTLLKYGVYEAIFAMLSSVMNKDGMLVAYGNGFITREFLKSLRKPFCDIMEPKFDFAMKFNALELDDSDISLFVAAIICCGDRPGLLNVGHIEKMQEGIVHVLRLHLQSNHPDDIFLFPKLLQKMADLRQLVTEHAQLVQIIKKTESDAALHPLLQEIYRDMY
Method: Figure 2 MD001 induces the expression of target genes through PPARα and PPARγ activation. HEK293 cells were transiently co-transfected with human HA-PPARα (A) and HA-PPARγ (B) expression vectors along with the reporter plasmid (PPRE-pk-Luc) or control reporter plasmid (pk-Luc) with Renilla vector for 24 h. Cells were treated with MD001 (10 μM), rosiglitazone (rosi) (10 μM) or WY14643 (WY) (10 μM) for 24 h. Luciferase activity was normalised to Renilla luciferase activity as described in the Methods section. **, vs. vehicle. (C) HepG2 cells were treated with MD001 (10 μM) for 24 h, and total RNA was isolated and synthesised into cDNA. Relative expression was quantitated using qRT-PCR. **, vs. vehicle. (D,E) HepG2 cells were transfected with control siRNA, PPARα siRNA (D), or PPARγ siRNA (E) for 48 h and treated with vehicle, WY14643 (10 μM), rosiglitazone (10 μM) or MD001 (10 μM) for 24 h. Subsequently, cells were harvested for total RNA isolation. Relative expression of target genes was quantitated using qRT-PCR. ^#, vs. control siRNA; ^‡, vs. control siRNA/vehicle; ^§, vs. control siRNA/WY; * and **, vs. control siRNA/MD001. Data represent the mean ± SD of three independent experiments. *P < 0.05, **P < 0.01, ^#P < 0.01, ^‡P < 0.01, and ^§P < 0.01.
For transient transfection, cells were transfected with plasmid DNA constructs by polyethylenimine (PEI, Polysciences, Inc., Warrington, PA, USA) according to the manufacturer’s instructions. Transcription activity assays of PPARα and PPARγ in HEK293 cells were performed by co-transfection of HA-PPARα, HA-PPARγ, and peroxisome proliferator-response element (PPRE) reporter plasmid (PPRE-pk-Luc) or control reporter plasmid (pk-Luc) with Renilla vector for 24 h. […] Luciferase activity was measured with the Dual-Luciferase Reporter Assay System (Promega, Madison, WI, USA) and quantified using GloMax (Promega, USA) according to the manufacturer’s protocol. […]
Luciferase activity was measured as described in the Methods section. […]

HepG2 cells = test: In vitro glucose consumption assay, HepG2; assay type: cell-based, human; conditions: 10, 50 μM, 24 h
Method: Figure 3 MD001 promotes glucose consumption by induction of GLUT expression. HepG2 (A), differentiated 3T3-L1 adipocytes (B), and differentiated C2C12 myotubes (C) were treated with vehicle, MD001 (10, 50 μM), or rosiglitazone (rosi, 10 μM) for 24 h; glucose consumption was examined as described in the Methods section. Cells were harvested for total RNA isolation. Relative expression levels of GLUT2 (D) and GLUT4 (E,F) were quantitated using qRT-PCR. *, **, and ^† vs. vehicle. Data represent the mean ± SD of three independent experiments. *P < 0.05, **P < 0.01, and ^†P < 0.01.
The glucose consumption assay was performed as previously described. Briefly, cells were treated with MD001 or rosiglitazone […]. The conditioned medium from cultured cells was harvested and assayed for glucose content using a Glucose Colorimetric Assay Kit II (BioVision Inc., Milpitas, CA, USA).

## Cc1c(O)cc(O)c2c(-c3ccccc3)c(C(=O)/C=C/c3ccccc3)c(=O)oc12 [MD001]
Human HA-PPARα; 10 μM, 24 h, vs. vehicle
  transcription via PPARα activation (luciferase activity): significantly increased
Human HA-PPARα; 24 h (Supplementary Fig. S2)
  transcriptional activity of PPARα: promoted simultaneous transcriptional activity
HepG2 cells
  glucose consumption: significantly increased glucose consumption in a dose-dependent manner
